In patent US20130064815A1, “INDUCING APOPTOSIS IN QUIESCENT CELLS” (THE TRUSTEES OF PRINCETON UNIVERSITY, priority 2011, published 2013):
Entries after “also recorded” stand apart in the source; their conditions may differ.

Columns and labels:
[1] = tested on: spontaneous breast cancer; conditions: long-term treatment; female C3H (Avy/a) mice; cited from earlier work
[2] = tested on: skin papillomas and carcinomas; conditions: topical 7,12-dimethylbenz(a)anthracene (DMBA), mice; cited from earlier work
oxidized proteins = assay: oxidized (carbonylated) protein immunoblot after DNP derivatization; format: cell-based, human; conditions: DHEA treatment
Description: Glutathione plays an important role in ROS scavenging, both by acting as a cofactor for glutathione peroxidase and via direct interaction with ROS (Jones et al., “Kinetics of superoxide scavenging by glutathione: an evaluation of its role in the removal of mitochrondrial superoxide, Biochem Soc Trans 31, 1337-1339, 2003, which is incorporated herein by reference as if fully set forth). The effects of DHEA treatment on the levels of oxidized proteins were monitored in proliferating and 7 dSS fibroblasts (FIG. 20). Oxidized, carbonylated proteins were derivatized with […] and monitored with an anti-2,4, dinitrophenol antibody. […] Thus, the 7 dSS fibroblasts rely on DHEA-sensitive pathways to maintain low levels of oxidized protein.
In addition to its role in providing amino acids and energy under starvation conditions, autophagy is involved in maintenance of cellular homeostasis and resistance to tumorigenesis through degradation of old or damaged proteins and entire organelles. […] To monitor the extent of protein oxidation in proliferating and contact-inhibited fibroblasts, the protein carbonyl groups were derivatized using 2,4-dinitrophenylhydrazine (DNP), and monitored using immunoblotting with an antibody that recognizes the covalently added DNP. […]

[3] = tested on: primary human fibroblasts; assay: caspase 3/7 activity apoptosis assay (ApoTox-Glo) in proliferating and quiescent fibroblasts; format: cell-based; conditions: for apoptosis-inducing effect (caspase-3/7 activity normalized to vehicle): four days treatment
Method: Referring to FIG. 2A, primary human fibroblasts were tested either in a proliferating state or after being induced into quiescence. Quiescence may be induced by either contact inhibition or serum starvation. Cells were treated with DHEA for four days, with bafilomycin added on the fourth day. Apoptosis was assessed based on the activity of caspase 3/7 for a fluorogenic substrate.
PPP inhibition and apoptosis analysis: Apoptosis was measured based on the levels of caspase 3/7 released into the media using the ApoTox-Glo Triplex Assay according to the manufacturer's instructions (Promega Corp., Madison, Wis.). Cells were plated in triplicate at 10,000 cells per well in white-walled, clear-bottom 96-well plates (Costar, Corning Life Sciences, Lowell, Mass.). For contact inhibition, cells were plated 7 days prior to the start of treatment, for serum starvation cells were plated 4 days prior to treatment and switched to 0.1% serum media for the remaining 3 days, while proliferating cells were plated the day prior to the start of treatment. […] Cells in serum starvation conditions were incubated in 0.1% serum during treatment as well. The apoptosis reagent was added at 100 μl per well and incubated for 1 h prior to reading. Luminescence was read from the top using a Synergy-2 plate reader (Biotek, Winooski, Vt.). Luminescence data were normalized to the vehicle only condition.
Apoptosis induction was assessed by monitoring caspase 3/7 activity using a luminescent caspase substrate. This assay is optimized for high-throughput screening in 96-well plates and allows multiple concentrations and combination of drugs to be tested in triplicate at different time points. […] Therefore, this assay was used to compare proliferating and serum-starved cells only.

[4] = tested on: four day serum starved fibroblasts; assay: induction of apoptosis in quiescent fibroblasts by DHEA and/or autophagy inhibitor combined with proteasome inhibitors; format: cell-based, human; conditions: DHEA alone; 48 hour treatment
Method: Referring to FIG. 17, the effect of treatment using DHEA and/or an autophagy inhibitor combined with proteasome inhibitors on apoptosis in quiescent cells was analyzed.
In this experiment, the proteasome inhibitor, bortezomib, was used in varying concentrations with DHEA during a 48 hour treatment.

[5] = tested on: intracellular reduced glutathione; assay: intracellular reduced glutathione by monochlorobimane flow cytometry; format: cell-based, human; conditions: serum-starved fibroblasts after DHEA treatment
Method: It was tested whether the increase in glutathione reductase activity in serum-starved fibroblasts was associated with elevated levels of reduced glutathione. 7 dSS fibroblasts were focused on because they had the highest activity of the four enzymes in the NADPH production pathway. Flow cytometry was used to monitor the levels of glutathione in proliferating and 7 dSS fibroblasts with monochlorobimane (MCB), a compound that forms blue fluorescent adducts when it reacts with intracellular reduced glutathione (Sebastia et al., “Evaluation of fluorescent dyes for measuring intracellular glutathione content in primary cultures of human neurons and beuroblastoma SH-SY5Y, Cytometry A 51, 16-25, 2003, which is incorporated herein by reference as if fully set forth). […] The results are consistent with a model in which the NADPH production program activated in the serum-starved fibroblasts contributes to a larger pool of reduced glutathione.
It was expected that the reduction in NADPH levels that resulted from DHEA treatment would result in lower activity of glutathione reductase and thus a decrease in the levels of reduced glutathione. […] The depletion of glutathione in response to DHEA could be an important part of the apoptotic pathway. […]

With `C[C@]12CC[C@H](O)CC1=CC[C@@H]1[C@@H]2CC[C@]2(C)C(=O)CC[C@@H]12` [DHEA, dehydroepiandrosterone] as the molecule, how does the “spontaneous breast cancer occurrence” value [1] read?
Its value is “inhibit spontaneous breast cancer occurrence”.

What about the “development of skin papillomas and carcinomas” value [2] of the same molecule?
The value was “reduced”.

And the oxidized protein levels (oxidized proteins; 7 dSS fibroblasts)?
Its oxidized protein levels is “significantly increased”.

What about the oxidized protein levels (oxidized proteins; proliferating fibroblasts) of the same molecule?
Its oxidized protein levels is “little effect”.

What about the “apoptosis-inducing effect (caspase-3/7 activity normalized to vehicle)” value ([3]; fibroblasts confluent 11 days (CI11) vs proliferating) of the same molecule?
Its value is “significantly stronger; also recorded: statistically significantly different at all doses except 100 μM”.

And the “apoptosis-inducing effect (caspase-3/7 activity normalized to vehicle)” value ([3]; fibroblasts serum-starved seven days (SS7) vs proliferating)?
The value was “yet stronger; also recorded: particularly sensitive; also recorded: statistically significantly different at all doses”.

What about the caspase induction ([3]; treatment with DHEA alone) of the same molecule?
The caspase induction was 6- to 8 fold.

And the “increase in apoptosis induction” value [4]?
Its value is roughly 2 fold.

What about the “intracellular GSH pools” value [5] of the same molecule?
Its value is “smaller pools of intracellular GSH”.
